Measured values taken from paper PMC5358098 (ACS chemical neuroscience, 2016).

Assays:
CB1R [1] = target: CB1R (Homo sapiens, UniProt P21554); assay: cell-based; assay type: cell-based; settings: read-out: Emax (% cAMP inhibition), agonist alone
CB1R [2] = target: CB1R (Mus musculus, UniProt P47746)
Chain of CB1R (Mus musculus, UniProt P47746) (P47746 whole entry): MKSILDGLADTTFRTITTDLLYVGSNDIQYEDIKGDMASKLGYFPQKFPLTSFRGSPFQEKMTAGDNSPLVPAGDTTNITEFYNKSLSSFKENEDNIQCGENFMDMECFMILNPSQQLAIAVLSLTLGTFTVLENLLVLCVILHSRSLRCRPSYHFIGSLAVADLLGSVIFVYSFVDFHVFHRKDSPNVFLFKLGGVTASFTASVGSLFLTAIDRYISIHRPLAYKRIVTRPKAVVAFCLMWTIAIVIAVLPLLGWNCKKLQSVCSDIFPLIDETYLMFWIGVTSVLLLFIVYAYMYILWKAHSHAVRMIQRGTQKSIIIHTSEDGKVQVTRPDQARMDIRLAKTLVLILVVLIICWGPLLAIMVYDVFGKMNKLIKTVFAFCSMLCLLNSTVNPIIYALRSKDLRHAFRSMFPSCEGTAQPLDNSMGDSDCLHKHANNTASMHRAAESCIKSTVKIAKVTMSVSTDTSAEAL

Chain of CB1R (Homo sapiens, UniProt P21554) (P21554 whole entry): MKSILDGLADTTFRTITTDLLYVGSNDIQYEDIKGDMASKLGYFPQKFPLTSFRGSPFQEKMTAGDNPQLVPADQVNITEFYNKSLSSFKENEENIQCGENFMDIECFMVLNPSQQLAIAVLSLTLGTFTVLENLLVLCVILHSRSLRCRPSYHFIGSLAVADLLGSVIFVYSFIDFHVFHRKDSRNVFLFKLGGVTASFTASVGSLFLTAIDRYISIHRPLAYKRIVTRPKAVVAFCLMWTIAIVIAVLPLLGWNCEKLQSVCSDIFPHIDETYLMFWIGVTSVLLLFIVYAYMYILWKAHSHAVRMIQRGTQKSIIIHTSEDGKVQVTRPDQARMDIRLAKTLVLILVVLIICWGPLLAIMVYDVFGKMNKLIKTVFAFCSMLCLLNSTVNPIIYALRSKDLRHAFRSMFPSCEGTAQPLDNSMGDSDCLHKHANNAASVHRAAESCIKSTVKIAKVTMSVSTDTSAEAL

**Q.** `CCCCCCC(C)(C)c1ccc([C@@H]2C[C@H](O)CC[C@H]2CCCO)c(O)c1` [CP55,940, 2-[(1R,2R,5R)-5-hydroxy-2-(3-hydroxypropyl)cyclohexyl]-5-(2-methyloctan-2-yl)phenol] was tested. Which Emax (CB1R [1]) did it give?
**A.** 106 ± 11.4%

**Q.** What about the “CB1R internalization, agonist alone” value (CB1R [2]) of the same compound?
**A.** sustained CB1R internalization beginning at 30 min
